{
  "source": "paper PMC2033742",
  "about": "“Comparison of ability of protein kinase C inhibitors to arrest cell growth and to alter cellular protein kinase C localisation” (British Journal of Cancer, 1995)",
  "key": {"[1]": {"tested_on": "A549 lung carcinoma cells", "assay": "Cell growth inhibition by cell counting (Coulter Counter), A549", "type": "cell-based, human", "experimental": "(§1) Compounds with varying degrees of potency and specificity for PKC were investigated in A549 and MCF-7 carcinoma cells. […] To substantiate the role of PKC in the growth inhibition caused by these agents, cells were depleted of PKC by incubation with bryostatin 1 (1 jsM). […] The subcellular distribution of PKC-z-, -e and -< was measured by Western blot analysis. […] Cell growth Human A549 lung and MCF-7 breast carcinoma cells were obtained from the European Collection of Animal Cell Cul- tures (Salisbury, UK). Cells (passage number 10-30) were cultured in an atmosphere of 5% carbon dioxide, the former in Ham's F-12 medium with penicillin/streptomycin, the lat- ter in minimum essential medium (Eagle's modification) with additional pyruvate (1 mM) and non-essential amino acids. Both media were supplemented with 10% FCS (Imperial Laboratories Europe, Andover, UK, and Gibco) and gluta- mine (2 mM). Cells were subcultured routinely twice weekly to maintain logarithmic growth. For cell proliferation studies cells were seeded at a density of 1.3 x 104 cm-2 and incubat- ed with 3 ml of medium including agents, which was replen- ished at intervals of 48 h (A549) or 72 h (MCF-7). Following incubation for 4 days (A549) or 6 days (MCF-7) with drugs, cell number was assessed using a Coulter Counter Model ZM. […] Bryostatin was removed by extensive washing of the cells followed by a 2 h recovery period. […] In some experiments cells were incubated with inhibitor for 48 rather than 24 h, in this case bryostation was not removed and left in the incubate. […] Radioactivity was counted using a Packard 1500 Tricarb scintillation counter. […] The amount of protein loaded per lane was 20 tg for detection of cPKC-oc and 30 lg for nPKC-e. Detection was by enhanced chemi- luminescence generated by oxidation of luminol in the presence of hydrogen peroxide using an ECL kit from Amer- sham International."}, "cPKC-a": {"biological_target": "T1, cPKC-a (Homo sapiens, UniProt P17252)", "T1 construct": "these three PKC isoenzymes are abundantly ex- pressed in A549 cells; endogenous in cells; host or cells: A549 human lung carcinoma cells", "assay": "Subcellular localisation of cPKC-alpha in A549 cells, Western blot of cellular fractions", "type": "cell-based", "experimental": "as §1"}, "nPKC-e": {"biological_target": "T2, nPKC-e (Homo sapiens, UniProt Q02156)", "T2 sequence (Q02156 1-737)": "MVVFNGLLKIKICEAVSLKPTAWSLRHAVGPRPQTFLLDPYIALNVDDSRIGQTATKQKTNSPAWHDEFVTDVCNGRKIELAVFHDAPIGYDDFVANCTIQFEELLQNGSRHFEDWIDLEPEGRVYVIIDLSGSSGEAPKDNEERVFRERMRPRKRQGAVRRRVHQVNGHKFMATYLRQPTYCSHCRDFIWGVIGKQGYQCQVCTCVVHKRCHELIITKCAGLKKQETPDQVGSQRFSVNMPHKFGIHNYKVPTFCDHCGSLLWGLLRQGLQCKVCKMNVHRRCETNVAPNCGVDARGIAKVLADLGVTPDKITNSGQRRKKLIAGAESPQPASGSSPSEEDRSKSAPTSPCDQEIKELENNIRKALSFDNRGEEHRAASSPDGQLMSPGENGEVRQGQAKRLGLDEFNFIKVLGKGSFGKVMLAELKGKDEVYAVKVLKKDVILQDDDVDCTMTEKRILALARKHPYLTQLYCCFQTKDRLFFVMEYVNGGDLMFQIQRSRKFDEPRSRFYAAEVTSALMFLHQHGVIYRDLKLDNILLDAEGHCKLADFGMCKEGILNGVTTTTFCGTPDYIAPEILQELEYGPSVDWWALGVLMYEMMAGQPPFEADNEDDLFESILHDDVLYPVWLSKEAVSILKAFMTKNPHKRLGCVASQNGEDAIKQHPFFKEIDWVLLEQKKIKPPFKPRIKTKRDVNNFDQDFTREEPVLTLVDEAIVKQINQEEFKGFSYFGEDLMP", "assay": "Subcellular localisation of nPKC-epsilon in A549 cells, Western blot of cytosolic, particulate and nuclear fractions", "experimental": "as §1"}, "[2]": {"settings": "phase I trials, ref Phillip et al., 1993, Prendiville et al.; cited from earlier work"}, "[3]": {"tested_on": "A549 lung carcinoma cells", "set-up": "method as in Dale and Gescher, 1989; Stanwell et al., 1994", "settings": "24 h with bryostatin 1 (1 micromolar); ref Dale and Gescher, 1989; Stanwell et al., 1994; cited from earlier work"}, "cPKC-a and nPKC-e": {"tested_on": "cPKC-a and nPKC-e", "assay": "PKC down-regulation in A549 cells by bryostatin 1, Western blot", "type": "cell-based, human", "settings": "bryostatin 1 at 1 (micromolar) for 24 h", "experimental": "To substantiate the role of PKC in the growth inhibition caused by these agents, cells were depleted of PKC by incubation with bryostatin 1 (1 jsM). […] The subcellular distribution of PKC-z-, -e and -< was measured by Western blot analysis. […] Bryostatin was removed by extensive washing of the cells followed by a 2 h recovery period. […] In some experiments cells were incubated with inhibitor for 48 rather than 24 h, in this case bryostation was not removed and left in the incubate. […] The amount of protein loaded per lane was 20 tg for detection of cPKC-oc and 30 lg for nPKC-e. Detection was by enhanced chemi- luminescence generated by oxidation of luminol in the presence of hydrogen peroxide using an ECL kit from Amer- sham International."}, "PKC-depleted A549 cells": {"tested_on": "PKC-depleted A549 cells", "assay": "[3H]Tdr incorporation into PKC-depleted (bryostatin 1 pretreated) A549 cells", "type": "cell-based, human", "experimental": "as §1"}, "A549 cells": {"tested_on": "A549 cells", "assay": "[3H]Tdr incorporation into control (naive) A549 cells", "type": "cell-based, human", "experimental": "as §1"}, "[4]": {"settings": "weaker enzyme inhibitors, read-out: concentrations which arrested growth"}, "[5]": {"settings": "A549 cells, 30 min, with TPA 25 nM, staurosporine effect not significant (P = 0.08)"}, "[6]": {"settings": "Homo sapiens, A549, read-out: IC50 for inhibition of [3H]Tdr incorporation"}, "[7]": {"settings": "Homo sapiens, A549, weaker enzyme inhibitors, read-out: concentrations which arrested growth"}, "[8]": {"settings": "PKC-depleted A549 cells (bryostatin 1 for 24 h, washed), 24 h with inhibitor, read-out: IC50 for inhibition of [3H]Tdr incorporation"}, "[9]": {"settings": "A549 and MCF-7 cells, read-out: IC50 values for growth arrest (stronger growth inhibitors)"}, "[10]": {"settings": "control A549 cells, 24 h with inhibitor, read-out: IC50 for inhibition of [3H]Tdr incorporation"}},
  "note": "Like-named read-outs stand apart in the source and are kept apart here.",
  "data": [
    {"smiles": "CCCCCCCCCCCCC/C=C/[C@@H](O)[C@H](CO)[N+](C)(C)C", "note": "[TMS, trimethylsphingosine]", "values": [
      {"measurement": "IC50", "setting": "[1]; [4]", "result": "> 1000", "unit": "nM"}
    ]},
    {"smiles": "COc1c(C[C@@H](C)OC(=O)Oc2ccc(O)cc2)c2c3c(C[C@@H](C)OC(=O)c4ccccc4)c(OC)c(=O)c4c(O)cc(OC)c(c5c(OC)cc(O)c(c1=O)c52)c43", "note": "[Calphostin C, calphostin C]", "values": [
      {"measurement": "IC50", "setting": "[1]; Homo sapiens, A549 and MCF-7 cells, read-out: IC50 values for growth arrest (stronger growth inhibitors)", "result": "< 1000", "unit": "nM"},
      {"measurement": "effect on TPA-induced cPKC-a redistribution", "setting": "cPKC-a", "result": "failed to affect TPA-induced cPKC-a redistribution"}
    ]},
    {"smiles": "CCCCCCCCCCCCC(=O)N1CCCCC1CNC(=O)C(N)CCCCN", "note": "(stereo not drawn) [NPC 15-437, 2,6-Diamino-N-([l-(1-oxotridecyl)-2-piperidinyl]methyl)hexanamide]", "values": [
      {"measurement": "IC50", "setting": "[1]; [4]", "result": "> 1000", "unit": "nM"}
    ]},
    {"smiles": "CN(C)CCCn1cc(C2=C(c3c[nH]c4ccccc34)C(=O)NC2=O)c2ccccc21", "note": "[GF 109203X]", "values": [
      {"measurement": "concentration which changed nPKC-e localisation significantly", "setting": "nPKC-e", "result": 0.1, "unit": "pM"},
      {"measurement": "IC50", "setting": "[1]; A549 and MCF-7 cells, read-out: IC50 for interference with cell growth", "result": "> 7000", "unit": "nM"},
      {"measurement": "effect on TPA-induced cPKC-a redistribution", "setting": "cPKC-a", "result": "failed to affect TPA-induced cPKC-a redistribution"}
    ]},
    {"smiles": "CO[C@@H]1[C@H](N(C)C(=O)c2ccccc2)C[C@H]2O[C@]1(C)n1c3ccccc3c3c4c(c5c6ccccc6n2c5c31)C(=O)NC4", "note": "[CGP 41251]", "values": [
      {"measurement": "effect on TPA-induced cPKC-a redistribution", "setting": "cPKC-a; [5]", "result": "failed to affect TPA-induced cPKC-a redistribution"}
    ]},
    {"smiles": "CCC/C=C/C=C/C(=O)O[C@H]1/C(=C/C(=O)OC)C[C@H]2C[C@H]([C@@H](C)O)OC(=O)C[C@H](O)C[C@@H]3C[C@H](OC(C)=O)C(C)(C)[C@](O)(C[C@@H]4C/C(=C/C(=O)OC)C[C@H](/C=C/C(C)(C)[C@]1(O)O2)O4)O3", "note": "[bryostatin 1]", "values": [
      {"measurement": "dose-limiting toxicity", "setting": "[2]", "result": "myalgia"},
      {"measurement": "growth inhibition under PKC depletion conditions", "setting": "[3]", "result": "negligible"},
      {"measurement": "down-regulation of cPKC-a and nPKC-e", "setting": "cPKC-a and nPKC-e", "result": "completely down-regulated"}
    ]},
    {"smiles": "CC1CNCCN1S(=O)(=O)c1cccc2cnccc12", "note": "(stereo not drawn) [H-7, 1-(5-Isoquinolinesulfonyl)-2-methylpiperazine]", "values": [
      {"measurement": "IC50", "setting": "PKC-depleted A549 cells; [6]", "result": 20000, "unit": "nM"},
      {"measurement": "IC50", "setting": "[1]; [7]", "result": "> 1000", "unit": "nM"},
      {"measurement": "effect on TPA-induced cPKC-a redistribution", "setting": "cPKC-a", "result": "failed to affect TPA-induced cPKC-a redistribution"},
      {"measurement": "IC50", "setting": "A549 cells; [6]", "result": 32000, "unit": "nM"}
    ]},
    {"smiles": "CN[C@@H]1C[C@H]2O[C@@](C)([C@@H]1OC)n1c3ccccc3c3c4c(c5c6ccccc6n2c5c31)C(=O)N[C@H]4O", "note": "[UCN-01]", "values": [
      {"measurement": "IC50", "setting": "PKC-depleted A549 cells; [8]", "result": 47, "unit": "nM"},
      {"measurement": "concentration required for translocation relative to IC50 for growth of A549 cells", "setting": "nPKC-e; A549", "result": "2- to 3 fold"},
      {"measurement": "concentration which changed nPKC-e localisation significantly", "setting": "nPKC-e; A549 cells, 30 min, P<0.05 vs control", "result": 0.1, "unit": "pM"},
      {"measurement": "IC50", "setting": "[1]; [9]", "result": "< 1000", "unit": "nM"},
      {"measurement": "effect on TPA-induced cPKC-a redistribution", "setting": "cPKC-a; [5]", "result": "behaved similarly"},
      {"measurement": "blots in which TPA-induced cPKC-a translocation was augmented", "setting": "cPKC-a; A549 cells, UCN-01 at 1 (micromolar) with TPA 25 nM", "result": "three out of six"},
      {"measurement": "IC50", "setting": "A549 cells; [10]", "result": 68, "unit": "nM"}
    ]},
    {"smiles": "CN[C@@H]1C[C@H]2O[C@@](C)([C@@H]1OC)n1c3ccccc3c3c4c(c5c6ccccc6n2c5c31)C(=O)NC4", "note": "[Staurosporine, staurosporine]", "values": [
      {"measurement": "IC50", "setting": "A549 cells; [6]", "result": 1.2, "unit": "nM"}
    ]},
    {"smiles": "CCCCCCCCCCCCCCCCOP(=O)([O-])OCC[N+](C)(C)C", "note": "[Miltefosine, Hexadecylphosphocholine]", "values": [
      {"measurement": "IC50", "setting": "[1]; [7]", "result": "> 1000", "unit": "nM"},
      {"measurement": "effect on TPA-induced cPKC-a redistribution", "setting": "cPKC-a; [5]", "result": "failed to affect TPA-induced cPKC-a redistribution"}
    ]},
    {"smiles": "Cn1cc(C2=C(c3cn(CCCSC(=N)N)c4ccccc34)C(=O)NC2=O)c2ccccc21", "note": "[RO 31-8220]", "values": [
      {"measurement": "IC50", "setting": "PKC-depleted A549 cells; [8]", "result": 1600, "unit": "nM"},
      {"measurement": "concentration which changed nPKC-e localisation significantly", "setting": "nPKC-e", "result": 0.1, "unit": "pM"},
      {"measurement": "IC50", "setting": "[1]; [9]", "result": "< 1000", "unit": "nM"},
      {"measurement": "effect on TPA-induced cPKC-a redistribution", "setting": "cPKC-a", "result": "failed to affect TPA-induced cPKC-a redistribution"},
      {"measurement": "IC50", "setting": "A549 cells; [10]", "result": 1900, "unit": "nM"}
    ]}
  ]
}
